Values of other authors in patent US8053002B2, “Medicinal herbal composition for treating infection” (priority 2005, dated 2011).

Key:
[1] = biological target: HIV-1 reverse transcriptase (Human immunodeficiency virus type 1 group M subtype B, UniProt P03366)
[2] = test system: herpes simplex virus (HSV-2)

Row | Compound | effect on HIV-1 reverse transcriptase activity [1] | anti-herpes simplex virus (HSV-2) activity in vitro [2] | further results
1 | Prunellin | – | – | minimum inhibition concentration against HIV-1 in vitro (HIV-1): 2.2 mg/L
2 | COCc1cc2cc(OC)c(OC)cc2c(-c2ccc3c(c2)OCO3)c1C=O [phyllamycin B] | inhibitory effect | – | –
3 | COC(=O)c1cc(O)c(O)c(O)c1 [methyl gallate] | – | exhibited anti-herpes simplex virus (HSV-2) activity | –
4 | O=c1cc(-c2ccc(O)cc2)oc2cc(O)cc(O)c12 [5,7,4-truhydroxyflavone] | – | – | anti-influenza virus activity (influenza virus): anti-influenza virus activity
5 | O=C(O[C@@H]1O[C@@H]2COC(=O)c3cc(O)c(O)c(O)c3-c3c(cc(O)c(O)c3O)C(=O)O[C@H]2[C@H](OC(=O)c2cc(O)c(O)c(O)c2)[C@H]1OC(=O)c1cc(O)c(O)c(O)c1)c1cc(O)c(O)c(O)c1 [Eugeniin] | – | exhibited anti-herpes simplex virus (HSV-2) activity | –
6 | COc1cc2cc3c(c(-c4ccc5c(c4)OCO5)c2cc1OC)COC3=O [retrojusticiden B] | inhibitory effect | – | –
